Test results reported in the NIST ThermoML archive (doi:10.1016/j.fluid.2011.06.011).

Experiment: xn = mol fraction of the nth substance listed
Conditions: 313.15 K, Liquid; for speed of sound: Sing-around technique in a fixed-path interferometer; for mass density: Vibrating tube method

C=CC(C)(O)CCC=C(C)C (centres undefined) [3,7-dimethyl-1,6-octadien-3-ol] + CCO
Conditions	mass density [kg/m3]	speed of sound [m/s]
101 kPa, x1 = 0.0506	784.31	–
101 kPa, x1 = 0.0507	–	1122.4
101 kPa, x1 = 0.0996	–	1142.3
101 kPa, x1 = 0.1008	794.24	–
101 kPa, x1 = 0.1969	808.41	1177.2
101 kPa, x1 = 0.2884	818.41	–
101 kPa, x1 = 0.2959	–	1200.7
101 kPa, x1 = 0.3918	–	1218.2
101 kPa, x1 = 0.3957	826.66	–
101 kPa, x1 = 0.4803	831.36	–
101 kPa, x1 = 0.4854	–	1230.3
101 kPa, x1 = 0.593	835.94	1240
101 kPa, x1 = 0.6838	838.63	1247.1
101 kPa, x1 = 0.7832	–	1252.8
101 kPa, x1 = 0.8438	841.86	–
101 kPa, x1 = 0.8633	–	1257
101 kPa, x1 = 0.8941	842.75	–
101 kPa, x1 = 0.9286	843.29	1259.5
101 kPa, x1 = 1	844.29	1260.8
20000 kPa, x1 = 0.0511	801	–
20000 kPa, x1 = 0.1003	809.9	–
20000 kPa, x1 = 0.1962	823	–
20000 kPa, x1 = 0.2989	833.1	–
20000 kPa, x1 = 0.3996	840	–
20000 kPa, x1 = 0.5015	845.2	–
20000 kPa, x1 = 0.5982	848.8	–
20000 kPa, x1 = 0.6898	851.6	–
20000 kPa, x1 = 0.7929	854.1	–
20000 kPa, x1 = 0.8885	856	–
20000 kPa, x1 = 0.9435	856.9	–
20000 kPa, x1 = 1	857.6	–
25000 kPa, x1 = 0.0511	804.8	–
25000 kPa, x1 = 0.1003	813.7	–
25000 kPa, x1 = 0.1962	826.7	–
25000 kPa, x1 = 0.2989	836.6	–
25000 kPa, x1 = 0.3996	843.5	–
25000 kPa, x1 = 0.5015	848.6	–
25000 kPa, x1 = 0.5982	852.2	–
25000 kPa, x1 = 0.6898	854.9	–
25000 kPa, x1 = 0.7929	857.4	–
25000 kPa, x1 = 0.8885	859.3	–
25000 kPa, x1 = 0.9435	860.1	–
25000 kPa, x1 = 1	860.9	–
30000 kPa, x1 = 0.0511	808.5	–
30000 kPa, x1 = 0.1003	817.2	–
30000 kPa, x1 = 0.1962	830.1	–
30000 kPa, x1 = 0.2989	839.9	–
30000 kPa, x1 = 0.3996	846.7	–
30000 kPa, x1 = 0.5015	851.7	–
30000 kPa, x1 = 0.5982	855.3	–
30000 kPa, x1 = 0.6898	858	–
30000 kPa, x1 = 0.7929	860.5	–
30000 kPa, x1 = 0.8885	862.3	–
30000 kPa, x1 = 0.9435	863.1	–
30000 kPa, x1 = 1	863.9	–
35000 kPa, x1 = 0.0511	812	–
35000 kPa, x1 = 0.1003	820.6	–
35000 kPa, x1 = 0.1962	833.3	–
35000 kPa, x1 = 0.2989	843	–
35000 kPa, x1 = 0.3996	849.6	–
35000 kPa, x1 = 0.5015	854.7	–
35000 kPa, x1 = 0.5982	858.3	–
35000 kPa, x1 = 0.6898	861	–
35000 kPa, x1 = 0.7929	863.4	–
35000 kPa, x1 = 0.8885	865.3	–
35000 kPa, x1 = 0.9435	866.1	–
35000 kPa, x1 = 1	866.8	–
40000 kPa, x1 = 0.0511	815.4	–
40000 kPa, x1 = 0.1003	824	–
40000 kPa, x1 = 0.1962	836.5	–
40000 kPa, x1 = 0.2989	846.2	–
40000 kPa, x1 = 0.3996	852.8	–
40000 kPa, x1 = 0.5015	857.8	–
40000 kPa, x1 = 0.5982	861.3	–
40000 kPa, x1 = 0.6898	864	–
40000 kPa, x1 = 0.7929	866.3	–
40000 kPa, x1 = 0.8885	868.2	–
40000 kPa, x1 = 0.9435	869	–
40000 kPa, x1 = 1	869.7	–
